In PMC11785708, “Design and synthesis of new quinazolinone derivatives: investigation of antimicrobial and biofilm inhibition effects” (Molecular Diversity, 2024):
Converted amounts (≈) assume the structure as drawn. “And” between values parts separate entries of the source, which are not always exact repeats. Identical values can stand only once.

How the values were obtained:
[1] = tested on: methicillin-resistant Staphylococcus aureus (MRSA); parameters: method as in PMID 32927027; conditions: read-out: biofilm formation inhibition IC50; cited from earlier work
[2] = tested on: P. aeruginosa ATCC 27953; assay: MIC determination, P. aeruginosa; assay type: cell-based, Pseudomonas aeruginosa; conditions: serial dilutions, triplicate
Experimental: (§1) Serial dilutions of the test compounds were tested to determine their MIC against the most susceptible organisms. The MIC was expressed as the lowest concentration which inhibited the visible growth of the corresponding microorganism. All assays were performed in triplicate.

[3] = tested on: B. subtilis ATCC 6633; assay: Agar well diffusion, B. subtilis; assay type: cell-based; conditions: Bacillus subtilis, ATCC6633; 100 μl of test compound 20 mg/ml in DMF; ciprofloxacin and fluconazole 30 μg/ml; 24 h; mean ± SD; read-out: diameters of inhibition zone, B. subtilis ATCC 6633
Experimental: (§2) The antimicrobial activity was tested against Gram positive bacteria: Bacillus cereus (B. cereus ATCC 6629), Bacillus subtilis (B. subtilis ATCC 6633), Staphylococcus aureus (S. aureus ATCC 6538), Gram negative bacteria: Klebsiella pneumoniae (K. pneumoniae ATCC 13883), Pseudomonas aeruginosa (P. aeruginosa ATCC 27953) and Candida albicans (C. albicans ATCC 10231). Glycerol stocks were thawed upon need and propagated into nutrient broth at 37 °C. The antibacterial activity of the compounds 9-32 was carried out in vitro using the agar well diffusion method, originally reported by […] and Bauer and coworkers and described by the National Committee for Clinical Laboratory Standards (NCCLS). Bacterial strains, adjusted at […] (equivalent to 0.5 McFarland), were used to inoculate nutrient agar plates. 9-mm diameter wells were punched into the solidified nutrient agar plates using sterile cork borer and 100 μl samples of the test compounds, dissolved in dimethyl formamide (DMF) at 20 mg/ml concentrations, were added and allowed to diffuse at 4 °C for 2 h. Subsequently, the plates were incubated overnight in an upright position at 37 °C. DMF was used as a negative control while ciprofloxacin and fluconazole (30 μg/ml) served as positive controls. After 24 h incubation, the diameters of the growth inhibition zones were recorded in mm. Data was expressed as mean ± standard deviation of three replicates.

[4] = tested on: P. aeruginosa ATCC 27953; assay: Bacterial cell surface hydrophobicity (CSH) assay (MATH / BATH); assay type: cell-based, Pseudomonas aeruginosa; conditions: increasing concentrations, toluene partition (Fig. 6)
Experimental: The effect of the test compounds 19 and 20 on cell surface hydrophobicity was investigated via the microbial or bacterial adherence to hydrocarbons (MATH / BATH) assay. Exponentially growing culture of P. aeruginosa ATCC 27953 incubated with or without test compounds were centrifuged, the pellets were re-suspended and OD600 was measured using UV/Vis spectrophotometer (Jasco V-630, Tokyo, Japan) to give Ao. The re-suspended cells were vigorously mixed with toluene followed by measuring the OD600 of the aqueous phase to give At. The hydrophobicity index was calculated as follows: Hydrophobicityindex=Ao-At/Ao×100

[5] = tested on: B. cereus ATCC 6629; assay: Agar well diffusion, B. cereus; assay type: cell-based; conditions: Bacillus cereus, ATCC6629; 100 μl of test compound 20 mg/ml in DMF; ciprofloxacin and fluconazole 30 μg/ml; 24 h; mean ± SD; read-out: diameters of inhibition zone, B. cereus ATCC 6629
Experimental: as §2

[6] = tested on: P. aeruginosa ATCC 27953; assay: Biofilm inhibition assay (crystal violet); assay type: cell-based; conditions: Pseudomonas aeruginosa, ATCC27953, P. aeruginosa ATCC 27953, 24 h
Experimental: Compounds with potential activity against P. aeruginosa ATCC 27953 were tested for the respective biofilm inhibition. The assay was carried out in microtiter plate setup using crystal violet (CV) staining of adherent cells, as modified from.
After 24 h cultivation, the supernatant and planktonic cells were discarded, wells were washed with phosphate buffered saline (PBS) and biofilms were stained with 0.1% CV. CV was subsequently washed then, solubilized with 33% (v/v) glacial acetic acid. The absorbance was measured at 540 nm using SPECTROstar® Nano microplate reader (BMG LABTECH GmbH, Germany). The experiments were performed in triplicate and independently repeated three times. GraphPad Prism 6.0 software was used to estimate the IC50 values, which correspond to […].

[7] = tested on: B. cereus ATCC 6629; assay: MIC determination, B. cereus; assay type: cell-based, Bacillus cereus; conditions: serial dilutions, triplicate
Experimental: as §1

[8] = tested on: S. aureus ATCC 6538; assay: Agar well diffusion, S. aureus; assay type: cell-based; conditions: Staphylococcus aureus, ATCC6538; 100 μl of test compound 20 mg/ml in DMF; ciprofloxacin and fluconazole 30 μg/ml; 24 h; mean ± SD; read-out: diameters of inhibition zone, S. aureus ATCC 6538
Experimental: as §2

[9] = Cell viability MTT assay; assay type: cell-based; conditions: human, BJ1 cells (normal skin fibroblasts)
Experimental: Cell viability testing at 5 mg/ml was carried out by colorimetric MTT assay on human normal cell line BJ1 (skin fibroblasts) to investigate the toxicity of the most broad spectrum derivatives 9, 15, 16, 18, 19, 20 and 29 (Table 3). The viability of the cells treated with the aforementioned derivatives was more than 87% at 5 mg/ml concentration. This gives indication that the compounds are tolerated and nontoxic for human cells, as the cytotoxic dose was higher than the therapeutic dose on most of microorganisms. It is worth mentioning that the safe limit of the percent of dead cells is not an absolute value and could be more than 10% as reported in previous studies.
The most broad spectrum compounds were evaluated for their cytotoxic activity against BJ1 cell line using colorimetric MTT [3-(4,5-dimethylthiazol-2-yl)-2,5-diphenyltetrazolium bromide] assay.

[10] = tested on: P. aeruginosa ATCC 27953; assay: Agar well diffusion, P. aeruginosa; assay type: cell-based; conditions: Pseudomonas aeruginosa, ATCC27953; 100 μl of test compound 20 mg/ml in DMF; ciprofloxacin and fluconazole 30 μg/ml; 24 h; mean ± SD; read-out: diameters of inhibition zone, P. aeruginosa ATCC 27953
Experimental: as §2

[11] = tested on: S. aureus ATCC 6538; assay: MIC determination, S. aureus; assay type: cell-based, Staphylococcus aureus; conditions: Staphylococcus aureus, ATCC6538; serial dilutions, triplicate
Experimental: as §1

[12] = tested on: B. subtilis ATCC 6633; assay: MIC determination, B. subtilis; assay type: cell-based, Bacillus subtilis; conditions: serial dilutions, triplicate; for MIC: Bacillus subtilis, ATCC6633
Experimental: as §1

[13] = tested on: Pseudomonas aeruginosa ATCC 27953; assay: Twitching motility assay; assay type: cell-based; conditions: starting from sub-MIC equal to half the MIC dose
Experimental: 5 µL of overnight-grown bacteria were stab-inoculated into Luria Bertani (LB) soft or quasi-solid plates containing 0.3% agar mixed with different concentrations of compounds 19, 20 and further incubated overnight in an upright position. The visible detectable distance of corrugated trails of twitching zones, away from the inoculation center at the petri dish-agar interface, was measured afterwards. The results were recorded as the average of several diameters’ measurements. DMF was used as a negative control. The experiments were performed in triplicate and represented as the mean of three measurements.

[14] = tested on: P. aeruginosa ATCC 27953; assay: Inhibition of exopolysaccharide (EPS) production; assay type: cell-based, Pseudomonas aeruginosa; conditions: means ± standard errors
Experimental: The inhibition of exopolysaccharide production by P. aeruginosa ATCC 27953 using quinazolinone derivatives was assessed according to total carbohydrate measurement.
P. aeruginosa’s biofilm was grown in the presence or absence of compounds (19, 20). Cells were incubated for 1 h with an equal volume of 5% (v/v) phenol and 5 × volume of concentrated sulfuric acid containing 0.2% (w/v) hydrazine sulphate then centrifuged at 10,000 g for 10 min (Z 326 K, HERMLE Labortechnik GmbH, Wehingen, Germany). The optical density of the supernatant was measured at 490 nm and the reduction in EPS was calculated as follows: EPSquantification%=OD490ofcontrol-OD490oftest/OD490ofcontrol×100

[15] = tested on: K. pneumoniae ATCC 13883; assay: MIC determination, K. pneumoniae; assay type: cell-based, Klebsiella pneumoniae; conditions: serial dilutions, triplicate; for MIC: Klebsiella pneumoniae, ATCC13883
Experimental: as §1

[16] = tested on: K. pneumoniae ATCC 13883; assay: Agar well diffusion, K. pneumoniae; assay type: cell-based; conditions: Klebsiella pneumoniae, ATCC13883; 100 μl of test compound 20 mg/ml in DMF; ciprofloxacin and fluconazole 30 μg/ml; 24 h; mean ± SD; read-out: diameters of inhibition zone, K. pneumoniae ATCC 13883
Experimental: as §2

[17] = tested on: C. albicans ATCC 10231; assay: Agar well diffusion, C. albicans; assay type: cell-based; conditions: Candida albicans, ATCC10231; 100 μl of test compound 20 mg/ml in DMF; ciprofloxacin and fluconazole 30 μg/ml; 24 h; mean ± SD; read-out: diameters of inhibition zone, C. albicans ATCC 10231
Experimental: as §2

[18] = tested on: C. albicans ATCC 10231; assay: MIC determination, C. albicans; assay type: cell-based, Candida albicans; conditions: serial dilutions, triplicate
Experimental: as §1

Nc1nc(-c2cccc(Br)c2)cc(-c2nc3ccccc3c(=O)[nH]2)n1 [IV]
IC50 [1]: 20.7 µM

O=c1c2ccccc2nc(CN2CCCC2)n1N=Cc1ccc([N+](=O)[O-])cc1 [Compound 20, 3-[(4-Nitrobenzylidene)amino]-2-(pyrrolidin-1-ylmethyl)quinazolin-4(3H)-one]
MIC ([2]; Pseudomonas aeruginosa, ATCC27953): 250 µg/mL (≈ 662 µM) | MIC, P. aeruginosa ATCC 27953 [2]: 250 ± 140 µg/mL (≈ 662 µM) | zone of inhibition at 20000 µg/mL [3]: 10 ± 0.12 mm | effect on hydrophobicity index (CSH) [4]: reduced hydrophobicity index | zone of inhibition at 20000 µg/mL [5]: 16 ± 0.07 mm | IC50 [6]: 6.86 µM and 2.59 µg/mL | MIC ([7]; Bacillus cereus, ATCC6629): 250 µg/mL (≈ 662 µM) | MIC, B. cereus ATCC 6629 [7]: 250 ± 0 µg/mL (≈ 662 µM) | melting point: 156 °C | zone of inhibition at 20000 µg/mL [8]: 13 ± 0.11 mm | viability at 5 mg/ml [9]: 88.1 ± 1.81% | zone of inhibition at 20000 µg/mL [10]: 21 ± 0.17 mm | MIC [11]: 15000 ± 500 µg/mL (≈ 39700 µM) | MIC [12]: 500 µg/mL (≈ 1320 µM) | MIC, B. subtilis ATCC 6633 [12]: 500 ± 0 µg/mL (≈ 1320 µM) | effect on twitching motility [13]: remarkably blocked | % EPS inhibition ([14]; 1/4 MIC): 21.51 ± 3.26% | % EPS inhibition ([14]; 1 MIC): 47.84 ± 3.00% | % EPS inhibition ([14]; 2 MIC): 61.50 ± 2.83% | MIC [15]: 500 µg/mL (≈ 1320 µM) | MIC, K. pneumoniae ATCC 13883 [15]: 500 ± 290 µg/mL (≈ 1320 µM) | zone of inhibition at 20000 µg/mL [16]: 16 ± 0.09 mm

O=c1c2ccccc2nc(CN2CCCC2)n1N=Cc1ccccc1 [Compound 15, 3-(Benzylideneamino)-2-(pyrrolidin-1-ylmethyl)quinazolin-4(3H)-one]
zone of inhibition at 20000 µg/mL [3]: 10 ± 0.33 mm | melting point: 108 to 110 °C | zone of inhibition at 20000 µg/mL [8]: 12 ± 0.26 mm | viability at 5 mg/ml [9]: 88.4 ± 0.91% | zone of inhibition at 20000 µg/mL [17]: 11 ± 0.11 mm | MIC ([18]; Candida albicans, ATCC10231): 5000 µg/mL (≈ 15000 µM) | MIC, C. albicans ATCC 10231 [18]: 5000 ± 290 µg/mL (≈ 15000 µM) | MIC [11]: 2000 ± 290 µg/mL (≈ 6020 µM) | MIC [12]: 2000 ± 290 µg/mL (≈ 6020 µM) | MIC [15]: 2000 µg/mL (≈ 6020 µM) | zone of inhibition at 20000 µg/mL [16]: 13 ± 0.41 mm
